The values below come from patent US20220380310A1, “P2X7R ANTAGONISTS” (priority 2019, published 2022).

Common to all, as to format: cell-based
For one assay, the target named is T1, P2X2R (Homo sapiens, UniProt Q9UBL9).
T1 construct: expressed in transfected cells; host or cells: HEK-293
T1 sequence (Q9UBL9 1-471): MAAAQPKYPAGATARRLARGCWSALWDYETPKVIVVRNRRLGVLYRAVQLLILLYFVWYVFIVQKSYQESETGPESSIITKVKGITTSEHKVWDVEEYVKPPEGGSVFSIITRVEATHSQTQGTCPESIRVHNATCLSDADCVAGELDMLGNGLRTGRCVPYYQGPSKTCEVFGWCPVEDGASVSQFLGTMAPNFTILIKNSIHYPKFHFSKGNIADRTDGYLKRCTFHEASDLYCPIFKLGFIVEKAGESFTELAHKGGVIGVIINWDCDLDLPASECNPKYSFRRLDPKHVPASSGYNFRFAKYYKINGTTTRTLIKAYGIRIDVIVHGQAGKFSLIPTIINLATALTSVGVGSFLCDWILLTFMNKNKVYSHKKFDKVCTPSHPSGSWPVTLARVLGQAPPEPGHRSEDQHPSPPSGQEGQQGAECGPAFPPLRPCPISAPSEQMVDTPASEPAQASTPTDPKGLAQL
The assay is described as follows: Receptor-mediated calcium entrance assay (Calcium Assay), P2X2R. The following applies: compound at 5 μM, read-out: Percentage of activity remains in the presence of the compound at 5 μM, P2X2R (Calcium Assay).

The target of assay [1] is T2, Human P2X1 receptor (P2X1R) (Homo sapiens, UniProt P51575).
T2 construct: expressed in transfected cells; host or cells: HEK-293
T2 sequence (P51575 1-399): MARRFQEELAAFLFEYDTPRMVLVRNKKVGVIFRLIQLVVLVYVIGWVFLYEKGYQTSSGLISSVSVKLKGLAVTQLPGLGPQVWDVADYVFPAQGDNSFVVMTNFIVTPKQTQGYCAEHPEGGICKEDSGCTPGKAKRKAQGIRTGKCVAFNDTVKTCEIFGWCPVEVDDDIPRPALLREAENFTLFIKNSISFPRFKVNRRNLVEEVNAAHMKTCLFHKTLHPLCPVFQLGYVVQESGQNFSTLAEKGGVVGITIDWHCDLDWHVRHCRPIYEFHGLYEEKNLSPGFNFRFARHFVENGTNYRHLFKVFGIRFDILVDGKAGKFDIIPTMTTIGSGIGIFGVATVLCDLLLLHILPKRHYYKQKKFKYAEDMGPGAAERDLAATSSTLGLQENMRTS
In words: Receptor-mediated calcium entrance assay (Calcium Assay), P2X1R transfected HEK-293 cells. The following applies: HEK293, compound at 5 μM, ATP 20 μM stimulus, read-out: Percentage of activity remains in the presence of the compound at 5 μM, P2X1R (Calcium Assay). The text has this: (§1) Human P2X1 receptor (P2X1R) is a member of P2X family. […] Thus, the calcium assay was used. In the calcium assay, P2X receptor activation leads to opening of ion channels, which increases intracellular calcium concentration. The increased intracellular calcium concentration can be detected by a calcium indicator dye such as Fluo-4 or Fluo-8. Molecular Probes™ Fluo-4, AM (Cat. No. F14201 from Fisher Scientific) was used in the assay. The procedures were similar as described in the Yo-Pro-1 assay until day 4. The construct of P2X1R for transient transfection to HEK-293 cells was the courtesy from Dr. Richard J. Evans laboratory (J. Biol. Chem. 279:9043-9055). After transfection and expression, on day 4 cells were washed twice by Ca-HBSS (The composition (in mM) was NaCl 135, HEPES 10, D-glucose 10, KCl 5.4, CaCl2 2, and MgCl2 1, pH to 7.4 by NaOH) and incubated in dye loading solution (The solution contained 2.5 μM Fluo-4, 1 mM probenecid, and 1× PowerLoad (Cat. No. P10020 from Fisher Scientific) in Ca-HBSS) for 70 minutes at 37° C. Then the extracellular loading dye was washed away and cells were incubated at Ca-HBSS containing 1 mM probenecid for 30 minutes. Before the final steps, probenecid was washed away with Ca-HBSS. The assay was performed by adding 25 μl of Ca-HBSS followed by 25 μl of various test compounds. At this point, the base level of fluorescence was obtained through the microplate reading—the base microplate reading for this assay. At the end, the stimulus (ATP at 20 μM was the final concentration for P2X1R) was added to activate the P2X1R. Activation of P2X1R opened the channel to allow influx of calcium, which was represented by fluorescence increases that were measured by the microplate device with excitation at 475 nm and emission wavelength in the range of 500-550 nm. The data were analyzed the same way as described before: The result of each well was first normalized by its corresponding base microplate reading. Then, the negative control signal was subtracted from. In the negative control, the test compound and the stimulus were replaced by Ca-HBSS. […] An average of six highest values of the plate (AVG) were considered as 100% and the value of each well was divided by AVG and presented as the relative values in percentages.

For assay [2], the target named is T3, Human P2X4 receptor (P2X4R) (Homo sapiens, UniProt Q99571).
T3 construct: expressed in transfected cells; host or cells: HEK-293
T3 sequence (Q99571 1-388): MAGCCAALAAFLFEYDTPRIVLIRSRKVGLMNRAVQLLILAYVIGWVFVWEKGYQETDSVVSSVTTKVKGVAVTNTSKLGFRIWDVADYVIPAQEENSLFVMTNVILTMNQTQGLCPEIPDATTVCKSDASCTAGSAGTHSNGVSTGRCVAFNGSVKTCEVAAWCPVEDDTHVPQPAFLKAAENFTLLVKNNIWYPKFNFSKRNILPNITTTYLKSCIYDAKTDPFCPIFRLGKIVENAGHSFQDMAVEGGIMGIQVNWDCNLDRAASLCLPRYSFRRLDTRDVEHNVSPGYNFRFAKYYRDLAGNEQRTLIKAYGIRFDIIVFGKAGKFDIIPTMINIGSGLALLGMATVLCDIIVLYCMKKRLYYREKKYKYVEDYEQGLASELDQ
In words: Receptor-mediated calcium entrance assay (Calcium Assay), P2X4R transfected HEK-293 cells. The settings on record: HEK293, compound at 5 μM, 1 mM ATP stimulus, read-out: Percentage of activity remains in the presence of the compound at 5 μM, P2X4R (Calcium Assay).
Excerpt: as §1
Human P2X4 receptor (P2X4R) construct (J. Biol. Chem. 290, 7930-7942) was transiently transfected to HEK-293 cells and the calcium assay was performed as described above. When 1 mM ATP was used as stimulus, an increased receptor mediated activity leading to intracellular calcium elevation can be seen in less than 10 minutes.

For the compound `O=C(CCc1ccccc1)NC1CCCN(c2ccc(S(=O)(=O)N3CCCCC3)cc2)C1` (stereo not drawn) [#54], the remaining activity at 5 µM at P2X2R was 59.4%; in assay [1], 48.4%; in assay [2], 63.3%.
In the same order, the values of `O=C(CCc1ccccc1)NC1CCCN(c2ccc(S(=O)(=O)N3CCCC3)cc2)C1` (stereo not drawn) [#55] are 52.7%, 53.8% and 37.7%.
